The source of these data is patent US20230279025A1, “KRAS G12D INHIBITORS” (Mirati Therapeutics, Inc., priority 2020, published 2023).

The target in this assay is KRas G12D (Homo sapiens (Human), UniProt P01116, G12D). Briefly: KRas G12D Binding Assay (TR-FRET displacement of Cy5 labelled tracer). The note with it: GDP-loaded KRAS G12D (amino acids 1:169), 60 minute incubation at 22° C. The protocol: After a 60 minute incubation at 22° C., the reaction was measured using a PerkinElmer EnVision multimode plate reader via TR-FRET dual wavelength detection, and the percent of control (POC) calculated using a ratiometric emission factor. […] The POC values were fit to a 4-parameter logistic curve and the IC50 value was determined as the concentration where the curve crosses 50 POC.
ND stands for “not determined.”
A general note: In TR-FRET formats the signal depends on donor and acceptor labels being close together.

Molecules are shown by their SMILES.

Sequence of KRas G12D (P01116 other isoform, or with tags, fused parts or gaps G12D): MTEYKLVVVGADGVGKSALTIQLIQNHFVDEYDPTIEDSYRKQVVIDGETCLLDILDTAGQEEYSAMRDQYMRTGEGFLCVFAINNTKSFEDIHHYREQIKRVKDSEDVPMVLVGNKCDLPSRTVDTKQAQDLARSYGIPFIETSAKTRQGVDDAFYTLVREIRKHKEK

As to `Fc1c(-c2ccccc2OC(F)F)ncc2c(N3C[C@H]4CC[C@@H](C3)N4)nc(OCC34CCCN3CCC4)nc12` [Example 303, 4-((1R,5S)-3,8-diazabicyclo[3.2.1]octan-3-yl)-7-(2-(difluoromethoxy)phenyl)-8-fluoro-2-((hexahydro-1H-pyrrolizin-7a-yl)methoxy)pyrido[4,3-d]pyrimidine], the IC50 (commonly the point on the concentration scale where inhibition reaches its midpoint) was determined as 357 nM.

The compound `NC1(COc2nc(N3C[C@H]4CC[C@@H](C3)N4)c3cnc(-c4cccc5cccc(Cl)c45)c(F)c3n2)CCCCC1` [Example 262, 1-(((4-((1R,5S)-3,8-diazabicyclo[3.2.1]octan-3-yl)-7-(8-chloronaphthalen-1-yl)-8-fluoropyrido[4,3-d]pyrimidin-2-yl)oxy)methyl)cyclohexanamine] returned an IC50 of 2260 nM. To `CN1CCC[C@H]1COc1nc(N2C[C@H]3CC[C@@H](C2)N3)c2cnc(-c3cccc4cccc(C#CCO)c34)c(F)c2n1` [Example 194, 3-(8-(4-((1R,5S)-3,8-diazabicyclo[3.2.1]octan-3-yl)-8-fluoro-2-(((S)-1-methylpyrrolidin-2-yl)methoxy)pyrido[4,3-d]pyrimidin-7-yl)naphthalen-1-yl)prop-2-yn-1-ol] belongs 151 nM. For `Fc1c(-c2ccccc2[C@@H]2C[C@H]2F)ncc2c(N3C[C@H]4CC[C@@H](C3)N4)nc(OCC34CCCN3CCC4)nc12` (relative stereo) [Example 285, 4-((1R,5S)-3,8-diazabicyclo[3.2.1]octan-3-yl)-8-fluoro-7-(2-(trans-2-fluorocyclopropyl)phenyl)-2-((hexahydro-1H-pyrrolizin-7a-yl)methoxy)pyrido[4,3-d]pyrimidine] the value was 279 nM; for `Fc1c(-c2cccc3cccc(Cl)c23)ncc2c(N3CC4CCC(C3)N4)nc(OC[C@@H]3CC(F)(F)CN3)nc12` [Example 352, 4-((1R,5S)-3,8-diazabicyclo[3.2.1]octan-3-yl)-7-(8-chloronaphthalen-1-yl)-2-(((S)-4,4-difluoropyrrolidin-2-yl)methoxy)-8-fluoropyrido[4,3-d]pyrimidine bis(2,2,2-trifluoroacetate)], 845 nM; for `CN1C[C@H](NC(=O)c2cccc(S(=O)(=O)F)c2)C[C@H]1COc1nc(N2C[C@H]3CC[C@@H](C2)N3)c2cnc(-c3cccc4cccc(Cl)c34)c(F)c2n1` [Example 211, 3-(((3R,5S)-5-(((4-((1R,5S)-3,8-diazabicyclo[3.2.1]octan-3-yl)-7-(8-chloronaphthalen-1-yl)-8-fluoropyrido[4,3-d]pyrimidin-2-yl)oxy)methyl)-1-methylpyrrolidin-3-yl)carbamoyl)benzenesulfonyl fluoride tris(2,2,2-trifluoroacetate)], 212 nM. For `O=C(CCl)N1CCC(Oc2nc(N3C[C@H]4CC[C@@H](C3)N4)c3cnc(-c4cccc5cccc(Cl)c45)c(F)c3n2)CC1` [Example 163, 1-(4-((4-((1R,5S)-3,8-diazabicyclo[3.2.1]octan-3-yl)-7-(8-chloronaphthalen-1-yl)-8-fluoropyrido[4,3-d]pyrimidin-2-yl)oxy)piperidin-1-yl)-2-chloroethan-1-one bis(2,2,2-trifluoroacetate)] the value was 5550 nM. With `Oc1cc(-c2ncc3c(N4CC5CCC(C4)N5)nc(OCCN4C[C@@H]5C[C@H]4CO5)nc3c2F)c2ccccc2c1` [Example 461, 4-(2-(2-((1S,4S)-2-oxa-5-azabicyclo[2.2.1]heptan-5-yl)ethoxy)-4-((1R,5S)-3,8-diazabicyclo[3.2.1]octan-3-yl)-8-fluoropyrido[4,3-d]pyrimidin-7-yl)naphthalen-2-ol], the concentration for half-maximal inhibition (IC50) was determined as 0.062 nM. To `Cc1c(F)cccc1-c1ncc2c(N3C[C@H]4CC[C@@H](C3)N4)nc(OCC34CCCN3CCC4)nc2c1F` [Example 294, 4-((1R,5S)-3,8-diazabicyclo[3.2.1]octan-3-yl)-8-fluoro-7-(3-fluoro-2-methylphenyl)-2-((hexahydro-1H-pyrrolizin-7a-yl)methoxy)pyrido[4,3-d]pyrimidine] belongs 620 nM. To `CN1C[C@H](NC(=O)c2ccc(C=O)cc2)C[C@H]1COc1nc(N2C[C@H]3CC[C@@H](C2)N3)c2cnc(-c3cccc4cccc(Cl)c34)c(F)c2n1` [Example 353, N-((3R,5S)-5-(((4-((1R,5S)-3,8-diazabicyclo[3.2.1]octan-3-yl)-7-(8-chloronaphthalen-1-yl)-8-fluoropyrido[4,3-d]pyrimidin-2-yl)oxy)methyl)-1-methylpyrrolidin-3-yl)-4-formylbenzamide] belongs 333 nM; to `Fc1c(-c2cccc3c2CC2CC32)ncc2c(N3CC4CCC(C3)N4)nc(OC[C@@]34CCCN3C[C@H](F)C4)nc12` (stereo partly drawn) [Example 438, 4-(3,8-diazabicyclo[3.2.1]octan-3-yl)-8-fluoro-2-(((2R,7aS)-2-fluorotetrahydro-1H-pyrrolizin-7a(5H)-yl)methoxy)-7-(1,1a,6,6a-tetrahydrocyclopropa[a]inden-5-yl)pyrido[4,3-d]pyrimidine], 20.1 nM. Turning to `Fc1c(-c2cccc3cccc(Cl)c23)ncc2c(N3C[C@H]4CC[C@@H](C3)N4)nc(OC[C@H]3CCCO3)nc12` [Example 137, 4-((1R,5S)-3,8-diazabicyclo[3.2.1]octan-3-yl)-7-(8-chloronaphthalen-1-yl)-8-fluoro-2-(((R)-tetrahydrofuran-2-yl)methoxy)pyrido[4,3-d]pyrimidine], the IC50 was determined as 2630 nM. To `CN(C)C(=O)NC[C@H]1CC[C@@]2(COc3nc(N4CC5CCC(C4)N5)c4cnc(-c5cccc6cccc(Cl)c56)c(F)c4n3)CCCN12` [Example 412, 3-((7a-(((4-(3,8-diazabicyclo[3.2.1]octan-3-yl)-7-(8-chloronaphthalen-1-yl)-8-fluoropyrido[4,3-d]pyrimidin-2-yl)oxy)methyl)hexahydro-1H-pyrrolizin-3-yl)methyl)-1,1-dimethylurea] belongs 17.7 nM; to `Cc1c(Cl)cc2[nH]ncc2c1-c1ncc2c(N3CC4CCC(C3)N4)nc(OC[C@@]34CCCN3C[C@H](F)C4)nc2c1F` (stereo in doubt) [Example 401, 4-((1R,5S)-3,8-diazabicyclo[3.2.1]octan-3-yl)-7-(6-chloro-5-methyl-1H-indazol-4-yl)-8-fluoro-2-((2-fluorotetrahydro-1H-pyrrolizin-7a(5H)-yl)methoxy)pyrido[4,3-d]pyrimidine], 2.8 nM. For `Oc1cc(-c2ncc3c(N4C[C@H]5CC[C@@H](C4)N5)nc(OC[C@@]45CCCN4C[C@H](F)C5)nc3c2F)c2c(F)c(F)ccc2c1` [Example 246, 4-(4-((1R,5S)-3,8-diazabicyclo[3.2.1]octan-3-yl)-8-fluoro-2-(((2R,7aS)-2-fluorohexahydro-1H-pyrrolizin-7a-yl)methoxy)pyrido[4,3-d]pyrimidin-7-yl)-5,6-difluoronaphthalene-2-ol] the value was 0.6 nM. Compound `CCc1cccc2cc(O)cc(-c3ncc4c(N5C[C@H]6CC[C@@H](C5)N6)nc(OC[C@@]56CCCN5C[C@H](F)C6)nc4c3F)c12` [Example 259, 4-(4-((1R,5S)-3,8-diazabicyclo[3.2.1]octan-3-yl)-8-fluoro-2-(((2R,7aS)-2-fluorotetrahydro-1H-pyrrolizin-7a(5H)-yl)methoxy)pyrido[4,3-d]pyrimidin-7-yl)-5-ethylnaphthalen-2-ol] had an IC50 of 0.8 nM.
